PMC9281440, “In Vivo Distribution and Therapeutic Efficacy of Radioiodine-Labeled pH-Low Insertion Peptide Variant 3 in a Mouse Model of Breast Cancer” (Molecular Imaging, 2022)
Read-outs that look alike come from different tables or passages of the source. Peptide text beside a SMILES is read from it.

Tests used:
MDA-MB-231 cells = test: In vitro cell binding assay of 125I-labeled peptides; type: cell-based, human; conditions: 37°C, mean ± SD, triplicate; for binding fraction to cells, B/(B + F) × 100%: γ counter
Description: Cells were incubated with ^125I-WT-pHLIP or ^125I-Var3-pHLIP for 1 h at 37°C in the medium at different pH values ranging from 6.2 to 7.8 (6.2, 6.6, 7.0, 7.4, 7.8). At the same time, cells in the medium at pH 6.2 were further incubated with ^125I-labeled peptide with an excess of unlabeled peptide (25 μg/well). The supernatant was aspirated into a tube. The cells were then washed twice with PBS of the corresponding pH to remove unbound radioactivity. The wash solution was also added to the supernatant tube containing free radioactivity (F). The cells with bound radioactivity (B) were completely lysed with 300 μl sodium hydroxide and aspirated into a cell tube. The radioactive counts of the cell and supernatant tube were measured by a γ counter. The cell binding fraction of the ^125I-labeled peptides was calculated as B/(B + F) × 100%. All experiments were performed in triplicate.

[1] = In vitro stability of radiolabeled peptides in serum at 37°C; type: in vitro ADME; conditions: 37°C in serum, radiochemical purity, thin-layer chromatography
Description: (§1) WT-pHLIP and Var3-pHLIP were labeled with ^125I for in vivo imaging experiments, and Var3-pHLIP was labeled with ^131I for therapeutic efficacy experiments. Radioactive iodine binds to tyrosine residues in pHLIPs. Peptides were dissolved in 200 μL of 0.02 M PBS (pH 7.4) to reach a concentration of 1 mg/mL and mixed with 10 μL of Na^125I (74 MBq) or 20 μL of Na^131I (925 MBq). Chloramine-T (20 μL, 5 mg/mL) was added to the test tubes and mixed for 70 s at room temperature. The reaction was stopped by adding 200 μL of sodium metabisulfite (5 mg/mL). The peptides were eluted in ethanol through a C18 column equilibrated with 20 mL of 100% ethanol and 20 mL of distilled water. The radioactive purity of ^125I-WT-pHLIP, ^125I-Var3-pHLIP, and ^131I-Var3-pHLIP was determined using thin-layer chromatography. Furthermore, the radiochemical purity of ^125I-WT-pHLIP, ^125I-Var3-pHLIP, and ^131I-Var3-pHLIP was measured, and chemical stability was determined at 24 and 48 h at room temperature (25°C) in PBS and at 37°C in serum.

[2] = Micro-SPECT/CT imaging and distribution of 125I-labeled pHLIPs; type: in vivo; conditions: female, mouse, total radioactivity, 4T1 tumor-bearing nude mice, 3.7 MBq iv, micro-SPECT/CT ROI, mean ± SD, n = 4; for tissue uptake at 4 h: 4 h pi; for tissue uptake at 24 h: 24 h pi; for tissue uptake at 48 h: 48 h pi; for tissue uptake at 1 h: 1 h pi; for tissue uptake at 2 h: 2 h pi
Description: Five-week-old female athymic BALB/c nude mice (Shanghai Slaccas Experiment Animal Corp., Shanghai, China) were used in our study. Mouse xenograft models of MDA-MB-231, 4T1, and SK-BR-3 cells were produced by the subcutaneous injection of 5 × 10^6 cells (suspended in 150 μL PBS) into the right axilla of each mouse. The mice were used in subsequent experiments when tumor diameter reached 0.5-0.9 cm. The study protocol was approved by the institutional review board and by the Experimental Animal Center of Ruijin Hospital affiliated to the School of Medicine of Shanghai Jiao Tong University.
Three days before micro-SPECT/CT imaging, 300 μL of 1% Kl solution was administered to mice by oral gavage once a day, and 0.1% Kl was added into the drinking water to block thyroid gland activity. Mice-bearing MDA-MB-231, 4T1, or SK-BR-3 tumors were intravenously injected with 3.7 MBq of ^125I-WT-pHLIP or ^125I-Var3-pHLIP. Each group contained four mice. The mice were anesthetized by isoflurane inhalation, placed in the prone position, and scanned using a four-head SPECT/CT system (U-SPECT/CT, MI-Lab, Netherlands) and dedicated multipinhole apertures with a diameter of 1.5 mm at 1, 2, 4, 24, and 48 h after injection of ^125I-labeled peptides. CT images were acquired after static SPECT imaging (10 min/frame). The images were reconstructed using U-SPECT REC software and analyzed using PMOD software version 3.9 (Switzerland). Regions of interest (ROIs) were drawn in the tumors and organs, including the brain, heart, liver, lungs, kidneys, intestine, and bladder, at various time points. The radioactivity per gram (ID%/g) in the ROIs was measured to obtain the dynamic tumor-to-background ratio (TBR, muscle tissue was used as the background) and the in vivo distribution and kinetics of ^125I-WT-pHLIP and ^125I-Var3-pHLIP in the xenograft models of BC.

[3] = In vitro stability of radiolabeled peptides in PBS at room temperature; type: physicochemical; conditions: room temperature (25°C), PBS buffer, radiochemical purity, thin-layer chromatography
Description: as §1

[4] = BALB/c nude, read-out: Distribution, Tumor
[5] = athymic BALB/c nude, bladder, read-out: Distribution, Bladder
[6] = athymic BALB/c nude, brain, read-out: Distribution, Brain
[7] = athymic BALB/c nude, heart, read-out: Distribution, Heart
[8] = athymic BALB/c nude, intestine, read-out: Distribution, Intestine
[9] = athymic BALB/c nude, kidney, read-out: Distribution, Kidney
[10] = athymic BALB/c nude, liver, read-out: Distribution, Liver
[11] = athymic BALB/c nude, lung, read-out: Distribution, Lung
[12] = athymic BALB/c nude, muscle, read-out: Distribution, Muscle

With `CC(C)C[C@H](NC(=O)[C@H](Cc1ccc(O)c(I)c1)NC(=O)[C@H](C)NC(=O)[C@H](CCCNC(=N)N)NC(=O)[C@H](Cc1c[nH]c2ccccc12)NC(=O)[C@@H]1CCCN1C(=O)[C@H](CC(N)=O)NC(=O)[C@H](CCC(N)=O)NC(=O)[C@H](CC(=O)O)NC(=O)[C@H](CC(=O)O)NC(=O)[C@H](CS)NC(=O)[C@H](C)N)C(=O)N[C@@H](CC(=O)O)C(=O)N[C@@H](CC(C)C)C(=O)N[C@@H](CC(C)C)C(=O)N[C@@H](Cc1ccccc1)C(=O)N1CCC[C@H]1C(=O)N[C@H](C(=O)N[C@@H](CC(=O)O)C(=O)N[C@H](C(=O)N[C@@H](CC(C)C)C(=O)N[C@@H](CC(C)C)C(=O)N[C@@H](CC(C)C)C(=O)N[C@@H](CC(=O)O)C(=O)N[C@@H](CC(C)C)C(=O)N[C@@H](CC(C)C)C(=O)N[C@@H](Cc1c[nH]c2ccccc12)C(=O)N[C@@H](CCCCN)C(=O)O)[C@@H](C)O)[C@@H](C)O` [125I-Var3-pHLIP] (HELM PEPTIDE1{A.C.D.D.Q.N.P.W.R.A.[O=C([C@H](Cc1ccc(O)c(I)c1)N[*:1])[*:2]].L.D.L.L.F.P.T.D.T.L.L.L.D.L.L.W.K}$$$$V2.0; N-terminus and C-terminus assumed) the “binding fraction to cells, B/(B + F) × 100%” value (MDA-MB-231 cells; pH 6.2, 1 h) was 24.90 ± 0.96%, the “binding fraction to cells with an excess of unlabeled peptide” value (MDA-MB-231 cells; pH 6.2, excess unlabeled peptide 25 μg/well) was 1.50 ± 0.11% and the “binding fraction to cells, B/(B + F) × 100%” value (MDA-MB-231 cells; pH 6.6, 1 h) was 23.88 ± 0.55%. For the same molecule, the “binding fraction to cells, B/(B + F) × 100%” value (MDA-MB-231 cells; pH 7.0, 1 h) was 23.40 ± 0.44%, the “binding fraction to cells, B/(B + F) × 100%” value (MDA-MB-231 cells; pH 7.4, 1 h) was 12.3 ± 0.80% and the “binding fraction to cells, B/(B + F) × 100%” value (MDA-MB-231 cells; pH 7.8, 1 h) was 1.30 ± 0.10%. For the same molecule, the stability ([1]; 24 h) was 83.2%, the stability ([1]; 48 h) was 82.6% and the tissue uptake at 4 h [2, 4] was 3.4 ± 0.73 %ID/g. For the same molecule, the tissue uptake at 24 h [2, 4] was 0.21 ± 0.07 %ID/g, the tissue uptake at 48 h [2, 4] was 0.12 ± 0.04 %ID/g and the tissue uptake at 1 h [2, 5] was 33.7 ± 21.1 %ID/g. The tissue uptake at 2 h [2, 5] was 24.9 ± 10.8 %ID/g, the tissue uptake at 4 h [2, 5] was 42.7 ± 17.6 %ID/g and the tissue uptake at 24 h [2, 5] was 2.83 ± 1.65 %ID/g. It also gave a tissue uptake at 48 h [2, 5] of 0.21 ± 0.13 %ID/g, a tissue uptake at 1 h [2, 6] of 1.44 ± 0.24 %ID/g and a tissue uptake at 2 h [2, 6] of 1.32 ± 0.49 %ID/g. For the same molecule, the tissue uptake at 4 h [2, 6] was 1.04 ± 0.47 %ID/g, the tissue uptake at 24 h [2, 6] was 0.16 ± 0.1 %ID/g and the tissue uptake at 48 h [2, 6] was 0.13 ± 0.09 %ID/g. The tissue uptake at 1 h [2, 7] was 14.4 ± 2.44 %ID/g, the tissue uptake at 2 h [2, 7] was 11 ± 2.39 %ID/g and the tissue uptake at 4 h [2, 7] was 8.21 ± 2.03 %ID/g. The tissue uptake at 24 h [2, 7] was 0.36 ± 0.16 %ID/g, the tissue uptake at 48 h [2, 7] was 0.17 ± 0.05 %ID/g and the tissue uptake at 1 h [2, 8] was 3.65 ± 0.64 %ID/g. The tissue uptake at 2 h [2, 8] was 3.63 ± 1.19 %ID/g, the tissue uptake at 4 h [2, 8] was 3.23 ± 0.7 %ID/g and the tissue uptake at 24 h [2, 8] was 0.28 ± 0.15 %ID/g. It also gave a tissue uptake at 48 h [2, 8] of 0.14 ± 0.11 %ID/g, a tissue uptake at 1 h [2, 9] of 7.98 ± 3.12 %ID/g and a tissue uptake at 2 h [2, 9] of 7.97 ± 2.23 %ID/g. For the same molecule, the tissue uptake at 4 h [2, 9] was 4.99 ± 2.04 %ID/g, the tissue uptake at 24 h [2, 9] was 0.39 ± 0.3 %ID/g and the tissue uptake at 48 h [2, 9] was 0.2 ± 0.13 %ID/g. It also gave a tissue uptake at 1 h [2, 10] of 14.9 ± 3.55 %ID/g, a tissue uptake at 2 h [2, 10] of 13.2 ± 2.28 %ID/g and a tissue uptake at 4 h [2, 10] of 12.6 ± 3.61 %ID/g. It also gave a tissue uptake at 24 h [2, 10] of 0.6 ± 0.16 %ID/g, a tissue uptake at 48 h [2, 10] of 0.23 ± 0.04 %ID/g and a tissue uptake at 1 h [2, 11] of 13.8 ± 3.09 %ID/g. For the same molecule, the tissue uptake at 2 h [2, 11] was 11.3 ± 3.09 %ID/g, the tissue uptake at 4 h [2, 11] was 9.4 ± 2.45 %ID/g and the tissue uptake at 24 h [2, 11] was 0.48 ± 0.15 %ID/g. For the same molecule, the tissue uptake at 48 h [2, 11] was 0.19 ± 0.1 %ID/g, the tissue uptake at 1 h [2, 12] was 1.41 ± 0.61 %ID/g and the tissue uptake at 2 h [2, 12] was 1.03 ± 0.19 %ID/g. The tissue uptake at 4 h [2, 12] was 0.8 ± 0.26 %ID/g, the tissue uptake at 24 h [2, 12] was 0.06 ± 0.04 %ID/g and the tissue uptake at 48 h [2, 12] was 0.03 ± 0.03 %ID/g. The tissue uptake at 1 h ([2]; athymic BALB/c nude, read-out: Distribution, Tumor) was 4.26 ± 1.24 %ID/g, the stability ([3]; 24 h) was over 95% and the stability ([3]; 48 h) was over 90%.
